Like-named read-outs stand apart in the source and are kept apart here.
Legend:
G3BP1 NFT2 = type: binding, human; conditions: library DMS-CoV, bait G3BP1 NFT2, prey N, listed as aa = residue placed at this position, column sums to 1
PABPC1 PABC = type: binding, human; conditions: DMS-BM library, bait PABPC1 PABC, row aa = residue at this position; for DMS-derived PSSM value, position F16 / DMS-derived PSSM value (averaged), position F9: F = wild type
[1] = prey ATXN2, TLNPNAKEFNPRSF(averaged) over the two overlapping peptides, S = wild type
[2] = prey ATXN2, peptide KSTLNPNAKEFNPRSF, N = wild type
[3] = prey ATXN2, TLNPNAKEFNPRSF(averaged) over the two overlapping peptides, N = wild type
[4] = prey ATXN2, peptide TLNPNAKEFNPRSFSQ, S = wild type
[5] = prey ATXN2, peptide KSTLNPNAKEFNPRSF, L = wild type
[6] = prey ATXN2, peptide KSTLNPNAKEFNPRSF, S = wild type
[7] = prey ATXN2, peptide KSTLNPNAKEFNPRSF
[8] = prey ATXN2, TLNPNAKEFNPRSF(averaged) over the two overlapping peptides

In the case of RNAPRITFGGPSDSTG T7Y (RNAPRIYFGGPSDSTG), the “DMS PSSM value, T (position 7)” value (G3BP1 NFT2; peptide RNAPRITFGGPSDSTG) is reported as 0.

For “APRITFGGPSDSTGSN D11R (APRITFGGPSRSTGSN)”, the “DMS PSSM value, D (position 11)” value (G3BP1 NFT2; peptide APRITFGGPSDSTGSN) was 0.

“RNAPRITFGGPSDSTG S12L (RNAPRITFGGPLDSTG)” was tested, and the “DMS PSSM value, S (position 12)” value (G3BP1 NFT2; peptide RNAPRITFGGPSDSTG) was 0.

“APRITFGGPSDSTGSN S10W (APRITFGGPWDSTGSN)” was tested, and the “DMS PSSM value, S (position 10)” value (G3BP1 NFT2; peptide APRITFGGPSDSTGSN) was 0.

In the case of “APRITFGGPSDSTGSN S15V (APRITFGGPSDSTGVN)”, the “DMS PSSM value, S (position 15)” value (G3BP1 NFT2; peptide APRITFGGPSDSTGSN) is reported as 0.03856.

In the case of APRITFGGPSDSTGSN P2F (AFRITFGGPSDSTGSN), the “DMS PSSM value, P (position 2)” value (G3BP1 NFT2; peptide APRITFGGPSDSTGSN) is reported as 0.0008942.

In the case of “APRITFGGPSDSTGSN S12N (APRITFGGPSDNTGSN)”, the “DMS PSSM value, S (position 12)” value (G3BP1 NFT2; peptide APRITFGGPSDSTGSN) is reported as 0.001178.

With RNAPRITFGGPSDSTG R5W (RNAPWITFGGPSDSTG) the “DMS PSSM value, R (position 5)” value (G3BP1 NFT2; peptide RNAPRITFGGPSDSTG) was 0.

For “RNAPRITFGGPSDSTG D13A (RNAPRITFGGPSASTG)”, the “DMS PSSM value, D (position 13)” value (G3BP1 NFT2; peptide RNAPRITFGGPSDSTG) was 0.

RNAPRITFGGPSDSTG I6E (RNAPRETFGGPSDSTG) was tested, and the “DMS PSSM value, I (position 6)” value (G3BP1 NFT2; peptide RNAPRITFGGPSDSTG) was 0.

For RNAPRITFGGPSDSTG N2R (RRAPRITFGGPSDSTG), the “DMS PSSM value, N (position 2)” value (G3BP1 NFT2; peptide RNAPRITFGGPSDSTG) was 0.

RNAPRITFGGPSDSTG R5D (RNAPDITFGGPSDSTG) was tested, and the “DMS PSSM value, R (position 5)” value (G3BP1 NFT2; peptide RNAPRITFGGPSDSTG) was 0.0001605.

For RNAPRITFGGPSDSTG F8D (RNAPRITDGGPSDSTG), the “DMS PSSM value, F (position 8)” value (G3BP1 NFT2; peptide RNAPRITFGGPSDSTG) was 0.

For APRITFGGPSDSTGSN T5V (APRIVFGGPSDSTGSN), the “DMS PSSM value, T (position 5)” value (G3BP1 NFT2; peptide APRITFGGPSDSTGSN) was 0.

RNAPRITFGGPSDSTG T7H (RNAPRIHFGGPSDSTG) was tested, and the “DMS PSSM value, T (position 7)” value (G3BP1 NFT2; peptide RNAPRITFGGPSDSTG) was 0.

In the case of “TLNPNAKEFNPRSF(averaged) S13I (TLNPNAKEFNPRIF)”, the “DMS-derived PSSM value (averaged), position S13” value (PABPC1 PABC; [1]) is reported as 0.01901.

For KSTLNPNAKEFNPRSF N5F (KSTLFPNAKEFNPRSF), the “DMS-derived PSSM value, position N5” value (PABPC1 PABC; [2]) was 0.

In the case of KSTLNPNAKEFNPRSF N7R (KSTLNPRAKEFNPRSF), the “DMS-derived PSSM value, position N7” value (PABPC1 PABC; [2]) is reported as 0.005056.

With “TLNPNAKEFNPRSF(averaged) N5P (TLNPPAKEFNPRSF)” the “DMS-derived PSSM value (averaged), position N5” value (PABPC1 PABC; [3]) was 4.119e-5.

In the case of TLNPNAKEFNPRSFSQ A6P (TLNPNPKEFNPRSFSQ), the “DMS-derived PSSM value, position A6” value (PABPC1 PABC; prey ATXN2, peptide TLNPNAKEFNPRSFSQ, A = wild type) is reported as 0.

In the case of “TLNPNAKEFNPRSFSQ S13Y (TLNPNAKEFNPRYFSQ)”, the “DMS-derived PSSM value, position S13” value (PABPC1 PABC; [4]) is reported as 0.04643.

With KSTLNPNAKEFNPRSF L4T (KSTTNPNAKEFNPRSF) the “DMS-derived PSSM value, position L4” value (PABPC1 PABC; [5]) was 0.

For “KSTLNPNAKEFNPRSF S15E (KSTLNPNAKEFNPREF)”, the “DMS-derived PSSM value, position S15” value (PABPC1 PABC; [6]) was 0.02092.

For “TLNPNAKEFNPRSF(averaged) T1G (GLNPNAKEFNPRSF)”, the “DMS-derived PSSM value (averaged), position T1” value (PABPC1 PABC; prey ATXN2, TLNPNAKEFNPRSF(averaged) over the two overlapping peptides, T = wild type) was 0.09.

With “TLNPNAKEFNPRSF(averaged) N10M (TLNPNAKEFMPRSF)” the “DMS-derived PSSM value (averaged), position N10” value (PABPC1 PABC; [3]) was 0.09167.

For TLNPNAKEFNPRSFSQ L2H (THNPNAKEFNPRSFSQ), the “DMS-derived PSSM value, position L2” value (PABPC1 PABC; prey ATXN2, peptide TLNPNAKEFNPRSFSQ, L = wild type) was 0.

For KSTLNPNAKEFNPRSF N7T (KSTLNPTAKEFNPRSF), the “DMS-derived PSSM value, position N7” value (PABPC1 PABC; [2]) was 0.001519.

With KSTLNPNAKEFNPRSF K9E (KSTLNPNAEEFNPRSF) the “DMS-derived PSSM value, position K9” value (PABPC1 PABC; prey ATXN2, peptide KSTLNPNAKEFNPRSF, K = wild type) was 0.0298.

For KSTLNPNAKEFNPRSF S2V (KVTLNPNAKEFNPRSF), the “DMS-derived PSSM value, position S2” value (PABPC1 PABC; [6]) was 0.1043.

For “TLNPNAKEFNPRSF(averaged) S13T (TLNPNAKEFNPRTF)”, the “DMS-derived PSSM value (averaged), position S13” value (PABPC1 PABC; [1]) was 0.05607.

In the case of “KSTLNPNAKEFNPRSF F16R (KSTLNPNAKEFNPRSR)”, the “DMS-derived PSSM value, position F16” value (PABPC1 PABC; [7]) is reported as 0.

“TLNPNAKEFNPRSF(averaged) N10W (TLNPNAKEFWPRSF)” was tested, and the “DMS-derived PSSM value (averaged), position N10” value (PABPC1 PABC; [3]) was 0.1093.

With “TLNPNAKEFNPRSFSQ S13L (TLNPNAKEFNPRLFSQ)” the “DMS-derived PSSM value, position S13” value (PABPC1 PABC; [4]) was 0.06939.

In the case of “TLNPNAKEFNPRSF(averaged) S13W (TLNPNAKEFNPRWF)”, the “DMS-derived PSSM value (averaged), position S13” value (PABPC1 PABC; [1]) is reported as 0.01751.

With “TLNPNAKEFNPRSF(averaged) F9P (TLNPNAKEPNPRSF)” the “DMS-derived PSSM value (averaged), position F9” value (PABPC1 PABC; [8]) was 0.

In the case of “KSTLNPNAKEFNPRSF F16K (KSTLNPNAKEFNPRSK)”, the “DMS-derived PSSM value, position F16” value (PABPC1 PABC; [7]) is reported as 0.01965.

With “KSTLNPNAKEFNPRSF R14I (KSTLNPNAKEFNPISF)” the “DMS-derived PSSM value, position R14” value (PABPC1 PABC; prey ATXN2, peptide KSTLNPNAKEFNPRSF, R = wild type) was 0.04837.

For “TLNPNAKEFNPRSF(averaged) F9K (TLNPNAKEKNPRSF)”, the “DMS-derived PSSM value (averaged), position F9” value (PABPC1 PABC; [8]) was 0.003046.

With TLNPNAKEFNPRSFSQ E8P (TLNPNAKPFNPRSFSQ) the “DMS-derived PSSM value, position E8” value (PABPC1 PABC; prey ATXN2, peptide TLNPNAKEFNPRSFSQ, E = wild type) was 0.2652.

With “TLNPNAKEFNPRSFSQ N10P (TLNPNAKEFPPRSFSQ)” the “DMS-derived PSSM value, position N10” value (PABPC1 PABC; prey ATXN2, peptide TLNPNAKEFNPRSFSQ, N = wild type) was 0.06147.

With KSTLNPNAKEFNPRSF L4V (KSTVNPNAKEFNPRSF) the “DMS-derived PSSM value, position L4” value (PABPC1 PABC; [5]) was 0.01089.

Source: article PMC12102759 (Protein Science : A Publication of the Protein Society, 2025)
